Results taken from patent publication US20230227484A1, “PYRIMIDINE COMPOUND AS AXL INHIBITOR” (NANJING CHIA TAI TIANQING PHARMACEUTICAL CO., LTD., priority 2020, published 2023).

Experiments:
[1] = system: MV-4-11 (human myeloid monocytic leukemia cell line); experiment: Proliferation inhibition activity of compounds to MV-4-11 cells (CellTiter-Glo); format: cell-based; conditions: MV4-11 cells, 72 h dosing
Procedure: MV-4-11 (human myeloid monocytic leukemia cell line, culture medium: JIMDM+10% fetal bovine serum) is purchased from Cobioer Biosciences Co., Ltd and cultured in a 5% C02 incubator at 37° C. The cells in a logarithmic growth phase are plated in a 96-well plate at cell densities of 8000 cells/well, 6000 cells/well, 2000 cells/well, 2000 cells/well and 3000 cells/well, and a blank control group is set at the same time.
A compound to be tested and the positive drug are dissolved in dimethyl sulfoxide to prepare a 10 mM stock solution, which is then stored in −80° C. refrigerator for long-time storage. After the cells are plated for 24 h, the 10 mM compound stock solution is diluted with dimethyl sulfoxide to obtain a working solution having a 200-fold concentration (the highest concentration is 200 or 2000 μM, a 3-fold gradient, a total of 10 concentrations), and 3 μL of the working solution of each concentration is added to 197 μL of complete medium, and diluted into a working solution of 3-fold concentration. 50 μL of the working solution is then taken and added to a 100 μL cell culture medium (a final concentration of dimethyl sulfoxide is 0.5%, v/v), and two complex holes are set for each concentration. After 72 h of dosing treatment, 50 μl of CellTiter-Glo® (purchased from Promega) is added to each well. Fluorescence signals are measured on Envision (PerkinElmer) according to an operating procedure of the specification. GraphPad Prism 5 software log(inhibitor) vs. response-Variable slope is used to fit a dose-response curve, so as to obtain the IC50 value of the compound to the inhibition of cell-proliferation. The calculation formulation of the inhibition rate is as follows: […]
wherein: signal value of subject: a mean fluorescence signal of cell+medium+compound group; signal value of blank group: a mean fluorescence signal of medium group (containing 0.5% DMSO); signal value of negative control group: a mean fluorescence signal of cell+medium group (containing 0.5% DMSO).

AXL kinase = biological target: T1, AXL kinase (Homo sapiens, UniProt P30530); experiment: Inhibitory activity of compound against AXL kinase (HTRF KinEASE); format: biochemical; conditions: AXL enzyme (Carna, 08-107), ATP 15 μM; "<" means below detection limit of the test
T1 construct: purchased Carna 08-107
T1 sequence (P30530 473-894 limits assumed): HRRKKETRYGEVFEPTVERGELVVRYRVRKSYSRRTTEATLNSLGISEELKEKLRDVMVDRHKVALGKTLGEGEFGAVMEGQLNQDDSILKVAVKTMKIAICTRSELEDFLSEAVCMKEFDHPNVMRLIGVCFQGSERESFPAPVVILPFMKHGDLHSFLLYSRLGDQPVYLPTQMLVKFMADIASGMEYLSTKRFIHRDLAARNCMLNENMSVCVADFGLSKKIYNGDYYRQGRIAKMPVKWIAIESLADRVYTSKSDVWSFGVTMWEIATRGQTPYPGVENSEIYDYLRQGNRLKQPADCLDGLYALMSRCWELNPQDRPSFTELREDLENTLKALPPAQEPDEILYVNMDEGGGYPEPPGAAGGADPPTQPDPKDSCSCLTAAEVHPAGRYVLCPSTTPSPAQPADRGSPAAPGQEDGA
Procedure: a) AXL enzyme (Carna, 08-107) configuration and addition: a 1×enzyme buffer (200 μL of Enzymatic buffer kinase 5×, 10 μL of 500 mM MgCl2, 10 μL of 100 mM DTT and 6.26 μL of 2500 nM SEB are added with […] of H2O, and prepared into 1 ml of 1× enzyme buffer) is used. AXL enzyme is diluted from 33.33 ng/uL to 0.027 ng/μL (1.67×, final conc.=0.016 ng/uL), a BioTek (MultiFlo FX) automatic liquid dispenser is used, and 6 μL of enzyme solution having a 1.67-fold final concentration is added respectively to compound wells and positive control wells; and 6 μL of 1×Enzymatic buffer is added to negative control wells.
b) Compound preparation and addition: the compounds and positive drugs prepared in the examples are diluted from 10 mM to 100 μM by DMSO, and titrated with a compound titrator (Tecan, D300e). The titrated solution is automatically sprayed by the titrator to each well to reach a required concentration, wherein the first concentration is 1 μM, and after ½ log dilution, a total of 8 concentrations are obtained. The resulting mixture is centrifuged at 2500 rpm for 30 s and incubated at room temperature for 15 min.
c) Preparation and addition of ATP and substrate: ATP (Sigma, A7699) is diluted with 1× enzyme buffer from 10 mM to 75 μM (5×), and the final concentration is 15 μM; the substrate TK Substrate 3-biotin (Cisbio, 61TK0BLC) is diluted with 1× enzyme buffer from 500 μM to 5 μM (5×), andthe final concentration is […]; ATP and the substrate are mixed in equal volume to obtain a mixed solution; the mixed solution is added to each well at 4 μL by using a BioTek automatic dispenser; centrifuged at 2500 rpm for 30 s, and reacted at 25° C. for 45 min.
d) Pirparation and addition of detection reagent: Streptavidin-XL665 (Cisbio, 610SAXLG) is diluted with HTRF KinEASE detection buffer (cisbio) from 16.67 μM to 250 nM (4×), and the final concentration is 62.5 nM; TK Antibody-Cryptate (Cisbio) is diluted with HTRF KinEASE detection buffer (cisbio) from 100× to 5×, and the final concentration is 1×; XL665 and Antibody are mixed in equal volume; the mixed solution is added to each well at 10 μL by using the BioTek automatic dispenser, centrifuged at 2500 rpm for 30 s, and reacted at 25° C. for 1 h. After the reaction is completed, the resulting product is detected by a multi-function plate reader HTR1p
GraphPad Prism 5 software log (inhibitor) vs. response-Variable slope is used to fit a dose-response curve to obtain the IC50 value of the compound to the inhibition of AXL kinase.
The calculation formula of the inhibition rate is as follows: […]

SMILES | IC50 [1] [nM] | IC50 (AXL kinase) [nM]
COc1c(F)ccc(Nc2nc(Nc3ccc4c(c3)CC[C@@H](N3CCCC3)CC4)ncc2Cl)c1P(C)(C)=O [Example 134, (S)-(6-((5-chloro-2-((7-(pyrrolidin-1-yl)-6,7,8,9-tetrahydro-5H-benzo[7]annulen-2-yl)amino)pyrimidin-4-yl)amino)-3-fluoro-2-methoxyphenyl)dimethyl phosphine oxide] | 3.63 | 0.85
CNC(=O)c1cc(O)ccc1Nc1nc(Nc2ccc3c(c2)CC[C@@H](N2CCCC2)CC3)ncc1Cl [Example 45, (S)-2-((5-chloro-2-((7-(pyrrolidin-1-yl)-6,7,8,9-tetrahydro-5H-benzo[7]annulen-2-yl)amino)pyrimidin-4-yl)amino)-5-hydroxyl-N-methylbenzamide] | 3.48 | 0.5
CNC(=O)c1cc(Cl)ccc1Nc1nc(Nc2ccc3c(c2)CC[C@@H](N2CCCC2)CC3)ncc1Cl [Example 36, (S)-5-chloro-2-((5-chloro-2-((7-(pyrrolidin-1-yl)-6,7,8,9-tetrahydro-5H-benzo[7]annulen-2-yl)amino)pyrimidin-4-yl)amino)-N-methylbenzamide] | 5.12 | 0.36
CNC(=O)c1cnccc1Nc1nc(Nc2ccc3c(c2)CC[C@@H](N2CCCC2)CC3)ncc1Cl [Example 20, (S)-4-((5-chloro-2-((7-(pyrrolidin-1-yl)-6,7,8,9-tetrahydro-5H-benzo[7]annulen-2-yl)amino)pyrimidin-4-yl)amino)-N-methylnicotinamide] | 5.96 | 1.93
CS(=O)(=O)c1ccccc1Nc1nc(Nc2ccc3c(c2)CC[C@@H](N2CCCC2)CC3)ncc1Cl [Example 23, (S)-5-chloro-N^4-(2-(methylsulfonyl)phenyl)-N^2-(7-(pyrrolidin-1-yl)-6,7,8,9-tetrahydro-5H-benzo[7]annulen-2-yl)pyrimidine-2,4-diamine] | 7.11 | 1.38
CC(C)S(=O)(=O)c1ccccc1Nc1nc(Nc2ccc3c(c2)CC[C@@H](N2CCCC2)CC3)ncc1Cl [Example 22, (S)-5-chloro-N^4-(2-(isopropylsulfo)phenyl)-N^2-(7-(pyrrolidin-1-yl)-6,7,8,9-tetrahydro-5H-benzo[7]annulen-2-yl)pyrimidine-2,4-diamine] | 6.76 | 0.11
CNC(=O)c1cc(F)ccc1Nc1nc(Nc2ccc3c(c2)CCN(C2CCOCC2)CC3)ncc1Cl [Example 46, 2-((5-chloro-2-((3-(tetrahydro-2H-pyran-4-yl)-2,3,4,5-tetrahydro-1H-benzo[d]aza-7-yl)amino)pyrimidin-4-yl)amino)-5-fluoro-N-methylbenzamide] | 1.63 | 0.8
CP(C)(=O)c1cc(OC(F)(F)F)ccc1Nc1nc(Nc2ccc3c(c2)CC[C@@H](N2CCCC2)CC3)ncc1Cl [Example 76, (S)-(2-((5-chloro-2-((7-(pyrrolidin-1-yl)-6,7,8,9-tetrahydro-5H-benzo[7]annulen-2-yl)amino)pyrimidin-4-yl)amino)-5-(trifluoromethoxyl)phenyl)dimethyl phosphine oxide] | 7.98 | 
CP(C)(=O)c1cc(-n2cnnn2)ccc1Nc1nc(Nc2ccc3c(c2)CC[C@@H](N2CCCC2)CC3)ncc1Cl [Example 109, (S)-(2-((5-chloro-2-((7-(pyrrolidin-1-yl)-6,7,8,9-tetrahydro-5H-benzo[7]annulen-2-yl)amino)pyrimidin-4-yl)amino)-5-(1H-tetrazol-1-yl)phenyl)dimethyl phosphine oxide] | 8.56 | 

Continued, values first:

IC50 [1] [nM] | IC50 (AXL kinase) [nM] | SMILES
9.15 | 2.41 | CC(C)(O)c1ccccc1Nc1nc(Nc2ccc3c(c2)CC[C@@H](N2CCCC2)CC3)ncc1Cl [Example 15, (S)-2-(2-((5-chloro-2-((7-(pyrrolidin-1-yl)-6,7,8,9-tetrahydro-5H-benzo[7]annulen-2-yl)amino)pyrimidin-4-yl)amino)phenyl)propan-2-ol]
1.44 | < 0.11 | CNC(=O)c1ccccc1Nc1nc(Nc2ccc3c(c2)CC[C@@H](N2CCCC2)CC3)ncc1Cl [Example 12, (S)-2-((5-chloro-2-((7-(pyrrolidin-1-yl)-6,7,8,9-tetrahydro-5H-benzo[7]annulen-2-yl)amino)pyrimidin-4-yl)amino)-N-methylbenzamide]
2.64 | 1.05 | CS(=O)(=O)Nc1ccccc1Nc1nc(Nc2ccc3c(c2)CC[C@@H](N2CCCC2)CC3)ncc1Cl [Example 30, (S)—N-(2-((5-chloro-2-((7-(pyrrolidin-1-yl)-6,7,8,9-tetrahydro-5H-benzo[7]annulen-2-yl)amino)pyrimidin-4-yl)amino)phenyl)methanesulfonamide]
3.13 |  | Cc1ccc(Nc2nc(Nc3ccc4c(c3)CC[C@@H](N3CCCC3)CC4)ncc2Cl)c(P(C)(C)=O)n1 [Example 81, (S)-(3-((5-chloro-2-((7-(pyrrolidin-1-yl)-6,7,8,9-tetrahydro-5H-benzo[7]annulen-2-yl)amino)pyrimidin-4-yl)amino)-6-methylpyridin-2-yl)dimethyl phosphine oxide]
13.9 | 2.43 | CP(C)(=O)c1cc(CO)ccc1Nc1nc(Nc2ccc3c(c2)CC[C@@H](N2CCCC2)CC3)ncc1Cl [Example 141, (S)-(2-((5-chloro-2-((7-(pyrrolidin-1-yl)-6,7,8,9-tetrahydro-5H-benzo[7]annulen-2-yl)amino)pyrimidin-4-yl)amino)-5-(hydroxymethyl)phenyl)dimethyl phosphine oxide]
2.93 |  | CP(C)(=O)c1cc(OC(F)F)ccc1Nc1nc(Nc2ccc3c(c2)CC[C@@H](N2CCCC2)CC3)ncc1Cl [Example 75, (S)-(2-((5-chloro-2-((7-(pyrrolidin-1-yl)-6,7,8,9-tetrahydro-5H-benzo[7]annulen-2-yl)amino)pyrimidin-4-yl)amino)-5-(difluoromethoxyl)phenyl)dimethyl phosphine oxide]
10.1 |  | CNC(=O)c1ccc(Nc2nc(Nc3ccc4c(c3)CC[C@@H](N3CCCC3)CC4)ncc2Cl)c(P(C)(C)=O)c1 [Example 77, (S)-4-((5-chloro-2-((7-(pyrrolidin-1-yl)-6,7,8,9-tetrahydro-5H-benzo[7]annulen-2-yl)amino)pyrimidin-4-yl)amino)-3-(dimethylphosphoryl)-N-methylbenzamide]
